In this assay the test system is electrical activity of the prefrontal cortex. The assay can be described thus: Quantitative EEG spectral analysis (FFT relative powers) in conscious rats. The format is in vivo, Wistar rats. The settings on record: for actual EEG effect: MFA 0.4 mg/kg ip; for increase in the relative powers in the prefrontal cortex: paroxetine 0.5 mg/kg ip alone. On the procedure: A group of 6 conscious Wistar rats was pre-implanted with 6 bipolar bilateral electrodes (2 frontal, 2 anterior hippocampic, 2 posterior hippocampic).
Different treatments were conducted by circular combination of 6 rats by treatment (psychotropic treatment alone, anti-connexin treatment alone, anti-connexin+psychotropic combination treatment). The injection of meclofenamic acid (Sigma) is performed by slow submeningeal injection (80 ng/kg, 4.5 pg/second) or intraperitoneally at different doses. The injection of glycyrrhetinic acid (Sigma) is performed by submeningeal injection (80 ng/kg). The injection of clozapine (Sigma) is performed intraperitoneally (0.2 mg/kg). The injection of paroxetine (Sigma) is performed intraperitoneally (0.5 mg/kg). The injection of modafinil (Cephalon) is performed intraperitoneally (125 mg/kg and 250 mg/kg).
The EEG measurements were performed on the different groups of conscious rats (previously implanted and habituated) by 2-hour recordings after injection. The spectral analysis performed by Fourier transform (FFT) makes it possible to obtain relative powers, Hertz-by-Hertz and second-by-second. The FFT data is then averaged minute-by-minute and associated with the solvent control produced the day prior to the recording under strictly identical experimental conditions. The relative spectral powers of the left and right prefrontal cortices are then averaged by 5-minute periods, averaged by groups of 12 5-minute repetitions and represented hour-by-hour.
The data obtained from the relative quantitative EEG analysis of the effects of the different drugs administered individually (psychotropic alone or anti-connexin agents alone), presented in the examples, were subjected to a statistical analysis by analysis of variance (ANOVA) with three factors: “Frequency” (by Hz), “Time” (first and second hour by 12 averaged 5-minute repetitions) and “Animal” (6 different animals for each treatment). For the combinations of psychotropic and anti-connexin agents presented in the examples, a fourth ANOVA factor was introduced: “Anti-connexin combination”. The significance threshold of the relative power modifications for a given frequency for a psychotropic drug alone with respect to the control (solvent of the psychotropic agent) or a psychotropic drug in combination with an anti-connexin with respect to the psychotropic agent administered alone (in favor of a relative power increase or a decrease) was chosen at a value of P<0.05.

Setting [1] is: diazepam 1 mg/kg ip alone, first hour.

As to `Cc1ccc(Cl)c(Nc2ccccc2C(=O)O)c1Cl` [MFA, Benzoic 2-[(2,6-di-chloro-3-phenyl)amino] acid], the “increase in the EEG potential / synchronization of the prefrontal cerebral activity” value (MFA 80 ng/kg submeningeal, 8-10 Hz, first hour extending to second hour) came out at 140%. Also, the “actual EEG effect” value was “no significant modification” (first hour) and “slight significant increase” (second hour). For the same compound, the “synchronization of the prefrontal cerebral activity at the second hour” value (MFA central administration (80 ng/kg submeningeal), second hour) is given as “decreases” and the “synchronization of the prefrontal cerebral activity at the second hour” value (MFA peripheral administration (2.45 mg/kg ip), second hour) is “significant increase in synchronization continues at the second hour”.

Take `CC(NC(C)(C)C)C(=O)c1cccc(Cl)c1` (stereo not drawn) [bupropion]: the “increase in power of the 8-10 Hz components” value is, setting by setting: (bupropion 0.16 mg/kg ip alone, first hour) “around 180%”; (bupropion 0.8 mg/kg ip alone, first hour) approximately 450%; (bupropion 4 mg/kg ip alone, first hour) approximately 280%.

Take `CN1CCN(C2=Nc3cc(Cl)ccc3Nc3ccccc32)CC1` [clozapine]: the “increase in the EEG potential / synchronization of the prefrontal cerebral activity” value (clozapine 0.2 mg/kg ip alone, 8-10 Hz, from first hour extending to second hour) is listed as 200%.

With `CN1C(=O)CN=C(c2ccccc2)c2cc(Cl)ccc21` [diazepam], under setting [1], the “decrease in power of the 4-7 Hz components” value is “around 25%” and the “increase in the power of the 11-30 Hz components” value is on record as “around 120%”.

In the case of `CN(C)CCC[C@@]1(c2ccc(F)cc2)OCc2cc(C#N)ccc21` [escitalopram], the “increase in power of the 6-8 Hz components” value reads like this: (escitalopram 0.8 mg/kg ip alone, first hour) “around 150%”; (escitalopram 4 mg/kg ip alone, first hour) approximately 200%.

Take `NC(=O)C[S+]([O-])C(c1ccccc1)c1ccccc1` (stereo not drawn) [modafinil]: the “increase in the EEG potential / synchronization of the prefrontal cerebral activity” value is 120% (modafinil 125 mg/kg ip alone, 2-5 Hz) and 300% (modafinil 250 mg/kg ip alone, 2-5 Hz).

As for `Fc1ccc([C@@H]2CCNC[C@H]2COc2ccc3c(c2)OCO3)cc1` [paroxetine], the “increase in the relative powers in the prefrontal cortex” value runs as follows: (8-10 Hz, first hour) “around 200%”; (8-10 Hz, second hour) “around 300%”.

Regarding `CN[C@H]1CC[C@@H](c2ccc(Cl)c(Cl)c2)c2ccccc21` [sertraline], the “increase in power of the 7-9 Hz components” value was “around 260%” (sertraline 0.16 mg/kg ip alone, first hour); “around 260%” (sertraline 0.8 mg/kg ip alone, first hour); approximately 200% (sertraline 4 mg/kg ip alone, first hour). Further, the “increase in power of the same components at the second hour” value (sertraline 0.8 mg/kg ip alone, second hour) is 900% and the “increase in power of the same components at the second hour” value (sertraline 4 mg/kg ip alone, second hour) is 450%.

For the compound `COc1ccc(C(CN(C)C)C2(O)CCCCC2)cc1` (stereo not drawn) [venlafaxine], the “increase in power of the 8-10 Hz components” value is, setting by setting: (venlafaxine 0.16 mg/kg ip alone, first hour) “around 120%”; (venlafaxine 4 mg/kg ip alone, first hour) approximately 200%.

The record behind these values is patent US11077080B2, “Use of anti-connexin agents for modulating the therapeutic effect of psychotropic drugs” (Commissariat A L'Energie Atomique Et Aux Energies …, priority 2008, dated 2021).
